# Results published in PubChem BioAssay (NCI).
#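 Growth conditions: 96-well plates. Treatment: test compound, 48 hours, 5 concentrations. Analysis: linear interpolation between bracketing concentrations; unreached endpoints set to highest concentration. TGI is the concentration that stops growth completely.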
# Columns and labels:
# Experiment in all cases: NCI tumour cell line growth inhibition, 48 h
# [1] = test system: A498 renal
# [2] = test system: SNB-19 CNS
# [3] = test system: SK-MEL-5 melanoma
# [4] = test system: TK-10 renal
# [5] = test system: HCT-15 colon
# [6] = test system: OVCAR-4 ovarian
# [7] = test system: SW-620 colon
# [8] = test system: EKVX NSCLC
# [9] = test system: SF-268 CNS
# [10] = test system: UACC-257 melanoma
# [11] = test system: SR leukemia
# [12] = test system: U251 CNS
# [13] = test system: SK-MEL-28 melanoma
# [14] = test system: KM12 colon
# [15] = test system: NCI-H460 lung
# [16] = test system: ACHN renal
# [17] = test system: COLO 205 colon
# [18] = test system: HL-60(TB) leukemia
# [19] = test system: RXF 393 renal
# [20] = test system: HCT-116 colon
# [21] = test system: M14 melanoma
# [22] = test system: PC-3 prostate
# [23] = test system: NCI-H226 lung
# [24] = test system: A549 NSCLC
# [25] = test system: 786-0 renal
# [26] = test system: LOX IMVI melanoma
# [27] = test system: SNB-75 CNS
# [28] = test system: HOP-92 NSCLC
# [29] = test system: SF-295 CNS
# [30] = test system: UO-31 renal
# [31] = test system: MCF7 breast
# [32] = test system: SF-539 CNS
# [33] = test system: SK-MEL-2 melanoma
# [34] = test system: K-562 leukemia
# [35] = test system: RPMI-8226 leukemia
# [36] = test system: SK-OV-3 ovarian
# [37] = test system: HOP-62 NSCLC
# [38] = test system: MDA-N
# [39] = test system: NCI/ADR-RES ovarian
# [40] = test system: MDA-MB-435
# [41] = test system: SN12C renal
# [42] = test system: CAKI-1 renal
# [43] = test system: NCI-H522 lung
# [44] = test system: MALME-3M melanoma
# [45] = test system: BT-549 breast
# [46] = test system: HT29 colon
# [47] = test system: HS 578T breast
# [48] = test system: CCRF-CEM leukemia
# [49] = test system: MOLT-4 leukemia
# [50] = test system: OVCAR-5 ovarian
# [51] = test system: MDA-MB-231 breast
# [52] = test system: UACC-62 melanoma
# [53] = test system: OVCAR-8 ovarian
# [54] = test system: OVCAR-3 ovarian
# [55] = test system: IGROV1 ovarian
# [56] = test system: T-47D breast
# [57] = test system: DU-145 prostate
compound,measurement,setting,value
O=C(O)C1CCc2ccc3ccccc3c2C1c1cccc2ccccc12 (configuration not stated),TGI,[1],67.2 µM
same,TGI,[2],34.2 µM
same,TGI,[3],30.1 µM
same,TGI,[4],> 100 µM
same,TGI,[5],45.9 µM
same,TGI,[6],90.9 µM
same,TGI,[7],> 100 µM
same,TGI,[8],85.8 µM
same,TGI,[9],91.7 µM
same,TGI,[10],59.4 µM
same,TGI,[11],49.9 µM
same,TGI,[12],33.8 µM
same,TGI,[13],39.5 µM
same,TGI,[14],37.8 µM
same,TGI,[15],38.2 µM
same,TGI,[16],> 100 µM
same,TGI,[17],77.7 µM
same,TGI,[18],62 µM
same,TGI,[19],39.6 µM
same,TGI,[20],28.9 µM
same,TGI,[21],38.9 µM
same,TGI,[22],41.2 µM
same,TGI,[23],60 µM
same,TGI,[24],36.4 µM
same,TGI,[25],38.2 µM
same,TGI,[26],36.3 µM
same,TGI,[27],90.1 µM
same,TGI,[28],38.6 µM
same,TGI,[29],69.4 µM
same,TGI,[30],40.5 µM
same,TGI,[31],89.4 µM
same,TGI,[32],49.8 µM
same,TGI,[33],38.6 µM
same,TGI,[34],> 100 µM
same,TGI,[35],> 100 µM
same,TGI,[36],> 100 µM
same,TGI,[37],35.9 µM
same,TGI,[38],52.3 µM
same,TGI,[39],57.8 µM
same,TGI,[40],73.7 µM
same,TGI,[41],59.3 µM
same,TGI,[42],> 100 µM
same,TGI,[43],60 µM
same,TGI,[44],50.4 µM
same,TGI,[45],38.8 µM
same,TGI,[46],32.7 µM
same,TGI,[47],> 100 µM
same,TGI,[48],50.7 µM
same,TGI,[49],48.7 µM
same,TGI,[50],37.9 µM
same,TGI,[51],85.4 µM
same,TGI,[52],29.4 µM
same,TGI,[53],52.1 µM
same,TGI,[54],29.8 µM
same,TGI,[55],63.3 µM
same,TGI,[56],> 100 µM
same,TGI,[57],68.8 µM
